Measurements taken from PubChem BioAssay AID1033 (Sanford-Burnham Center for Chemical Genomics, 2008).
The source made the active and inactive calls. The rule behind the calls is not given here.

molecular target: Chaperone protein DnaK (Escherichia coli (strain K12)) (UniProt P0A6Y8); experiment: E. coli DnaK SBD ligand binding – biophysical, NMR, chaperone (AID 1033); conditions: Purified DnaK SBD
Sequence (P0A6Y8 whole entry, looked up): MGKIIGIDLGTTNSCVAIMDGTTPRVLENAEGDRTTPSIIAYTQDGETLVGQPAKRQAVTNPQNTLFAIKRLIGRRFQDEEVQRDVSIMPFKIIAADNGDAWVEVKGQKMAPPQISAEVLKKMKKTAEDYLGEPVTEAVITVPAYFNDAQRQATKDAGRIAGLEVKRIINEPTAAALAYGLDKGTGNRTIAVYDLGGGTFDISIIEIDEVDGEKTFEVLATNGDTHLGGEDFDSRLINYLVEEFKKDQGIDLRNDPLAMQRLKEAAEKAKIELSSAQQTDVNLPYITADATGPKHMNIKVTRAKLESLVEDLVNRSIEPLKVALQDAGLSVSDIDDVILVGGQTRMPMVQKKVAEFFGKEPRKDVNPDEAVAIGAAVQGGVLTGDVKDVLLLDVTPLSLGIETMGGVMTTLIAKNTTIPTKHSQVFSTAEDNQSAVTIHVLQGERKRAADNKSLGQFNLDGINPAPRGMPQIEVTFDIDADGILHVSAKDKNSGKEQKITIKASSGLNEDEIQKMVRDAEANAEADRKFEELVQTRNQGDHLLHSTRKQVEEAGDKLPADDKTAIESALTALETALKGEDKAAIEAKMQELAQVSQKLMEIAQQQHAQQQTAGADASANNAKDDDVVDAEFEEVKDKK

Compound	Kd
O=S1(=O)CCC(NCCO)C1 (stereo not given)	> 4 mM (inactive)
COC(=O)[C@]1(C)CC[C@]2(C)CC[C@]3(C)C4=CCc5c(cc(O)c(O)c5C)[C@]4(C)CC[C@@]3(C)C2C1 (stereo not given in full)	> 4 mM (inactive)
CS(=O)(=O)N1CCN(C(=O)c2ccccc2)CC1	> 4 mM (inactive)
C[C@@H]1CC[C@H]2[C@@H](C)C(=O)O[C@@H]3OC4(C)CC[C@@H]1[C@]32OO4	> 4 mM (inactive)
O=C1NC(=O)C(C(C[N+](=O)[O-])c2ccc(O)cc2)C(=O)N1 (stereo not given)	> 4 mM (inactive)
Cc1ccc(C2NS(=O)(=O)N=C2N)cc1 (stereo not given)	> 4 mM (inactive)
c1ccc(CCc2nc(-c3ccccn3)no2)cc1	> 4 mM (inactive)
Cc1ncc(CC(=O)O)s1	> 4 mM (inactive)
COc1cc(OC)c2c(=O)c(-c3ccccc3)coc2c1	> 4 mM (inactive)
Nc1ccccc1C(=O)N1CCOCC1	> 4 mM (inactive)
NC1=NC(=O)/C(=C/c2ccccc2[N+](=O)[O-])S1	> 4 mM (inactive)
COc1ccccc1-c1nc(-c2ccc(C)nc2OC)no1	> 4 mM (inactive)
O=C(Nc1ccc2c(c1)OCCO2)c1ccncc1	> 4 mM (inactive)
Nc1nc(-c2nc3ccccc3[nH]2)cs1	> 4 mM (inactive)
O=C(O)C1CCN(c2ccc(C(F)(F)F)cn2)CC1	> 4 mM (inactive)
CCSc1nc(=S)n(CC)c(C)c1C(C)=O	> 4 mM (inactive)
Nc1ccc(CCC(=O)O)cc1	> 4 mM (inactive)
O=C(O)C1CSC(c2ccccc2)N1 (stereo not given)	> 4 mM (inactive)
O=C(C1CCC(C(=O)N2CCCC2)CC1)N1CCCC1 (stereo not given)	> 4 mM (inactive)
CC(=O)Nc1ccc(NC(=O)c2ccnn2C)cc1	> 4 mM (inactive)

Compound	Kd
O=C(O)C1CCN(C(=O)c2cccs2)CC1	> 4 mM (inactive)
Nc1cccc(S(=O)(=O)N2CCCC2)c1	> 4 mM (inactive)
Cc1nn2c(=O)/c(=C/c3cccc(F)c3)sc2nc1=O	> 4 mM (inactive)
COc1cc2c(cc1OC)[C@@H]1C(=O)c3ccc(OC)c(CC=C(C)C)c3O[C@@H]1CO2	> 4 mM (inactive)
OCc1csc(-c2ccccc2)n1	> 4 mM (inactive)
O=c1cc(-c2ccc(O)cc2)[nH]c(=S)[nH]1	> 4 mM (inactive)
COc1cc(OC)c2c(=O)c(OC)c(-c3ccc(OC)c(OC)c3)oc2c1	> 4 mM (inactive)
CCOc1cccc(C(=O)c2ccc(O)c(O)c2O)c1	> 4 mM (inactive)
Cn1cnc2c(=S)[nH]c(=O)n(Cc3ccccc3)c21	> 4 mM (inactive)
Cn1nc(-c2cccs2)cc1N	> 4 mM (inactive)
NC(=O)CSc1nnc2ccc(-c3ccco3)nn12	> 4 mM (inactive)
CN1CCN(C(=O)/C=C\C(=O)O)CC1	> 4 mM (inactive)
CCOC(=O)c1c(-c2ccncc2)csc1N	> 4 mM (inactive)
NC(=O)c1ccc(Cl)c(N2C(=O)CCC2=O)c1	> 4 mM (inactive)
O=C(Nc1ccc(Cl)cc1)N1CCCC1	> 4 mM (inactive)
CSc1nc2nc(C)cc(=O)n2[nH]1	> 4 mM (inactive)
O=c1[nH]cc(NCc2ccco2)c(=O)[nH]1	> 4 mM (inactive)
Fc1cccc(Cl)c1CN1CCCNCC1	> 4 mM (inactive)
C=C(C)C1Cc2c(ccc(C(=O)O)c2O)O1 (stereo not given)	> 4 mM (inactive)
CC(=O)Nc1ccc(NC(C)=O)cc1	> 4 mM (inactive)

Compound	Kd
Cc1ccccc1N1C(=O)CC(=O)NC1=O	> 4 mM (inactive)
O=C(Nc1ccon1)c1ccccc1Cl	> 4 mM (inactive)
COc1cc([C@@H]2c3cc4c(cc3[C@H](OC(C)=O)[C@H]3COC(=O)[C@H]23)OCO4)cc(OC)c1OC	> 4 mM (inactive)
CCc1cc(=O)[nH]c(SCC(=O)NCCOC)n1	> 4 mM (inactive)
CN1CCC2(CC1)CC1CC3C=CC1(CN2)O3 (stereo not given)	> 4 mM (inactive)
O=C(O)CC(O)c1nc2ccccc2[nH]1 (stereo not given)	> 4 mM (inactive)
CC(=O)Nc1ccc(NC(=O)c2ccncc2)cc1	> 4 mM (inactive)
CC(C)CC(=O)NC1CCSC1=O (stereo not given)	> 4 mM (inactive)
O=C1C2C3C=CC(C3)C2C(=O)N1c1nccs1 (stereo not given)	> 4 mM (inactive)
NC(=O)NCCCC(N)C(=O)O (stereo not given)	> 4 mM (inactive)
CC(=O)NCCc1cc2ccc(C)c(C)c2[nH]c1=O	> 4 mM (inactive)
COc1ccc(-c2ccc(=O)n(CC(N)=O)n2)cc1	> 4 mM (inactive)
CC(=O)O[C@@H]1CC2C(C)(C)CCC(=O)[C@]2(C)C2CC[C@@]3(C)[C@H](c4ccoc4)OC(=O)C4OC43[C@@]21C (stereo not given in full)	> 4 mM (inactive)
COCCn1c(C)cc(O)cc1=O	> 4 mM (inactive)
O=C(O)CC1NCCNC1=O (stereo not given)	> 4 mM (inactive)
CN(C)C(=O)c1ccccc1-c1ccccc1	> 4 mM (inactive)
Cc1occc1C(=O)N1CCN(S(C)(=O)=O)CC1	> 4 mM (inactive)
CON(C)C(=O)Nc1ccc(Cl)cc1	> 4 mM (inactive)
O=C1CCC(c2cccs2)=NN1	> 4 mM (inactive)
OCCNC(=S)Nc1ccc(F)cc1	> 4 mM (inactive)
